From ChEMBL document CHEMBL1123862, “Binding orientation of amphetamine and norfenfluramine analogues in the benzonorbornene and benzobicyclo[3.2.1]octane ring systems at the active site of phenylethanolamine N-methyltransferase (PNMT)” (J Med Chem, 1987)

Key:
[1] = molecular target: T1, Phenylethanolamine N-methyltransferase (Bos taurus, UniProt P10938); assay: (§1) Inhibition of Phenylethylamine N-Methyltransferase (PNMT) using radiochemical assay
T1 sequence (P10938 whole entry): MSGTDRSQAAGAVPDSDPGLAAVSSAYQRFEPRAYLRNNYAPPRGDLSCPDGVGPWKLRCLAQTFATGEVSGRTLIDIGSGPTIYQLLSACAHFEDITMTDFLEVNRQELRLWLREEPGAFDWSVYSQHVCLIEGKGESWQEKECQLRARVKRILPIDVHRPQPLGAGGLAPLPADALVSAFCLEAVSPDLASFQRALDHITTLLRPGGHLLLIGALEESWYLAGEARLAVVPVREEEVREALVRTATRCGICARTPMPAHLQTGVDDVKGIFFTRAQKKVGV

[2] = compound: NC1C2CC[C@H]1c1ccccc12; assay: as §1
[3] = compound: N[C@@H]1C2CCC1c1ccc(C(F)(F)F)cc1C2; assay: as §1
[4] = compound: N[C@@H]1CC2C[C@@H]1c1ccccc12; assay: as §1
[5] = compound: N[C@@H]1C2CCC1c1cccc(C(F)(F)F)c1C2; assay: as §1
[6] = compound: N[C@@H]1CC2CC1c1cccc(C(F)(F)F)c12; assay: as §1
[7] = compound: N[C@@H]1CC2CC1c1ccc(C(F)(F)F)cc12; assay: as §1
[8] = compound: N[C@H]1C2CCC1c1cc(C(F)(F)F)ccc12; assay: as §1

**Q.** `N[C@@H]1CC2CCC1c1ccccc12` (some centres not stated) was tested. Which Ki [1] did it give?
**A.** Its Ki is 1300 µM.

**Q.** With `N[C@H]1C2CCC1c1cc(C(F)(F)F)ccc1C2` (some centres not stated) as the molecule, how does the Ki [1] read?
**A.** Its Ki is 801 µM.

**Q.** How did the Ki [1] turn out when `N[C@H]1C2CCC1c1cccc(C(F)(F)F)c1C2` (some centres not stated) was run?
**A.** The Ki was 1430 µM.

**Q.** How did the Ki [1] turn out when `NC1CCc2ccccc2C1` (configuration not stated) was run?
**A.** Its Ki is 15 µM.

**Q.** How did the Ki [1] turn out when `N[C@@H]1C2CCC1c1cc(C(F)(F)F)ccc1C2` (some centres not stated) was run?
**A.** The Ki was 31.8 µM.

**Q.** With `N[C@@H]1CC2CC1c1cc(C(F)(F)F)ccc12` (some centres not stated) as the molecule, how does the Ki [1] read?
**A.** The Ki was 204 µM.

**Q.** Which Ki [1] does the source give for `N[C@@H]1C2CCC1c1ccccc1C2` (some centres not stated) here?
**A.** Its Ki is 106 µM.

**Q.** Which Ki [1] does the source give for `N[C@H]1C2CCC1c1c(cccc1C(F)(F)F)C2` (some centres not stated) here?
**A.** The Ki was 191 µM.

**Q.** Which Ki [1] does the source give for `N[C@H]1C2CCC1c1ccc(C(F)(F)F)cc1C2` (some centres not stated) here?
**A.** The Ki was 1800 µM.

**Q.** With `N[C@@H]1CC2CC1c1c2cccc1C(F)(F)F` (some centres not stated) as the molecule, how does the Ki [1] read?
**A.** The Ki was 350 µM.

**Q.** `NC1C2CC[C@H]1c1ccccc12` (some centres not stated) was tested. Which Ki [1] did it give?
**A.** The Ki was 258 µM.

**Q.** Which Ki [1] does the source give for `N[C@@H]1C2CCC1c1c(cccc1C(F)(F)F)C2` (some centres not stated) here?
**A.** Its Ki is 51.1 µM.

**Q.** How did the Ki [1] turn out when `N[C@H]1C2CCC1c1ccccc1C2` (some centres not stated) was run?
**A.** Its Ki is 8900 µM.

**Q.** How did the Ki [1] turn out when `N[C@H]1C2CCC1c1c2cccc1C(F)(F)F` (some centres not stated) was run?
**A.** The Ki was 12.1 µM.

B1: Phenylethanolamine N-methyltransferase (Bos taurus), P10938 (protein)
chain: MSGTDRSQAAGAVPDSDPGLAAVSSAYQRFEPRAYLRNNYAPPRGDLSCPDGVGPWKLRCLAQTFATGEVSGRTLIDIGSGPTIYQLLSACAHFEDITMTDFLEVNRQELRLWLREEPGAFDWSVYSQHVCLIEGKGESWQEKECQLRARVKRILPIDVHRPQPLGAGGLAPLPADALVSAFCLEAVSPDLASFQRALDHITTLLRPGGHLLLIGALEESWYLAGEARLAVVPVREEEVREALVRTATRCGICARTPMPAHLQTGVDDVKGIFFTRAQKKVGV
**Q.** What does the source list for B1?
**A.** Km [2]: 151 µM; Vmax [2]: 0.17 nmol/min/mg; Km [3]: 45.8 µM; Vmax [3]: 0.46 nmol/min/mg; Vmax [4]: 0.04 nmol/min/mg; Km [5]: 34.4 µM; Vmax [5]: 0.52 nmol/min/mg; Km [6]: 33 µM; Vmax [6]: 0.49 nmol/min/mg; Km [7]: 52 µM; Vmax [7]: 1.38 nmol/min/mg; Km [8]: 14.6 µM; Vmax [8]: 0.57 nmol/min/mg
